Laboratory results reported in US9187472B2 (AbbVie Inc., priority 2012, dated 2015).

Assays:
[1] = biological target: NAMPT (human, recombinant, C-terminally His-tagged) (Homo sapiens, UniProt P43490); assay: Time-Resolved Fluorescence Resonance Energy Transfer (TR-FRET) Binding Assay of NAMPT; conditions: without substrates; 6.8 nM NAMPT, 200 nM probe, 3 hours equilibration
In short: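 A TR-FRET probe-displacement assay used 6.8 nM His-tagged recombinant human NAMPT, 200 nM Oregon Green 488-labelled nicotinamide-competitive probe and 1 nM Tb-anti-His antibody. Buffer was HEPES pH 7.5 with NaCl, MgCl2, DTT and glycerol, plus 2% DMSO, equilibrated 3 h at room temperature. Em520/Em495 ratios, normalized to controls, gave IC50 by four-parameter logistic fit.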

[2] = test system: PC3 cells; assay: NAMPT Cell Proliferation Assay; format: cell-based; conditions: Homo sapiens, PC-3, 120 h, 5 days incubation, cell viability by Cell Titer Glo
In short: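 Seed PC3 at 500 cells/well (RPMI, 10% HI-FBS), attach overnight; add compound, 10-fold series 10 μM → 1×10^−5 μM; incubate 5 d, 37° C/5% CO2; luminescent viability readout; fit % inhibition sigmoidally for IC50.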

[3] = biological target: NAMPT (Homo sapiens, UniProt P43490); assay: TR-FRET Binding Assay of NAMPT with PRPP; conditions: with 200 μM PRPP and 2.5 mM ATP; 2 nM NAMPT, 2 nM probe, 16 hours equilibration
Chain of NAMPT (P43490 whole entry): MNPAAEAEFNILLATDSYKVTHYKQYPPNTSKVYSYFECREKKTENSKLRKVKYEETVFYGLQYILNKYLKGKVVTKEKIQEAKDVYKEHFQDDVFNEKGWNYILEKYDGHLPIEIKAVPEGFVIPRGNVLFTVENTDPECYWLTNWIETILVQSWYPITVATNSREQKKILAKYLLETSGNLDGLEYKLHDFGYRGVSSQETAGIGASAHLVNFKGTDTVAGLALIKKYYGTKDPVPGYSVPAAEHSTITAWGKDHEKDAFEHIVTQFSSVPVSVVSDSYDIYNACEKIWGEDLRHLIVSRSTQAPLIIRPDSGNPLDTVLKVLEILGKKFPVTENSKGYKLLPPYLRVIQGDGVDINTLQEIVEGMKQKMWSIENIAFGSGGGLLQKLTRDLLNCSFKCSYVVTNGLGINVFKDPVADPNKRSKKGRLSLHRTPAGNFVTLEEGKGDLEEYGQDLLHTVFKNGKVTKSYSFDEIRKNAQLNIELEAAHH
In short: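 Human NAMPT (2 nM) with 2 nM probe and 1 nM Tb-anti-His antibody, plus 200 μM PRPP and 2.5 mM ATP, 2% DMSO. TR-FRET read after 16 h equilibration, permitting possible enzymatic modification of test compounds; data processing as for the substrate-free format.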

Chain of NAMPT (human, recombinant, C-terminally His-tagged) (P43490 whole entry): as above

SMILES | IC50 [1] | IC50 [2] | IC50 [3]
O=C(NCc1ccn2ccnc2c1)c1ccc(C2CCN(C(=O)c3cccc(OC(F)(F)F)c3)CC2)cc1 [Example 703, N-(imidazo[1,2-a]pyridin-7-ylmethyl)-4-{1-[3-(trifluoromethoxy)benzoyl]piperidin-4-yl}benzamide] | 559 nM | 90.3 nM | 0.824 nM
O=C(NCc1ccn2ccnc2c1)c1ccc(C2CCN(C(=O)c3ccc(OC(F)(F)F)cc3)CC2)cc1 [Example 704, N-(imidazo[1,2-a]pyridin-7-ylmethyl)-4-{1-[4-(trifluoromethoxy)benzoyl]piperidin-4-yl}benzamide] | 503 nM | 91.5 nM | 0.777 nM
O=C(NCc1ccn2ccnc2c1)c1ccc(C2CCN(C(=O)c3ccc(C(F)(F)F)cc3)CC2)cc1 [Example 705, N-(imidazo[1,2-a]pyridin-7-ylmethyl)-4-{1-[4-(trifluoromethyl)benzoyl]piperidin-4-yl}benzamide] | 876 nM | 95.8 nM | 1.63 nM
O=C(NCc1ccn2ccnc2c1)c1ccc(C2CCN(C(=O)c3ccccc3OC(F)(F)F)CC2)cc1 [Example 706, N-(imidazo[1,2-a]pyridin-7-ylmethyl)-4-{1-[2-(trifluoromethoxy)benzoyl]piperidin-4-yl}benzamide] | 84.1 nM | 6.54 nM | 0.937 nM
CC1CC1C(=O)N1CCC(c2ccc(NC(=O)NCc3ccn4ccnc4c3)cc2)CC1 (stereo not drawn) [Example 711, 1-(imidazo[1,2-a]pyridin-7-ylmethyl)-3-(4-{1-[(2-methylcyclopropyl)carbonyl]piperidin-4-yl}phenyl)urea] | 88.5 nM | 3.25 nM | 1.11 nM
O=C(NCc1ccn2ccnc2c1)Nc1ccc(C2CCN(C(=O)CC3CC3)CC2)cc1 [Example 712, 1-{4-[1-(cyclopropylacetyl)piperidin-4-yl]phenyl}-3-(imidazo[1,2-a]pyridin-7-ylmethyl)urea] | 91.1 nM | 5.8 nM | 0.907 nM
O=C(NCc1ccn2ccnc2c1)Nc1ccc(C2CCN(C(=O)CC(F)(F)F)CC2)cc1 [Example 713, 1-(imidazo[1,2-a]pyridin-7-ylmethyl)-3-{4-[1-(3,3,3-trifluoropropanoyl)piperidin-4-yl]phenyl}urea] | 44.3 nM | 2.86 nM | 0.689 nM
O=C(NCc1ccn2ccnc2c1)Nc1ccc(C2CCN(C(=O)CCC(F)(F)F)CC2)cc1 [Example 714, 1-(imidazo[1,2-a]pyridin-7-ylmethyl)-3-{4-[1-(4,4,4-trifluorobutanoyl)piperidin-4-yl]phenyl}urea] | 168 nM | 17.4 nM | 0.991 nM
O=C(NCc1ccn2ccnc2c1)Nc1ccc(C2CCN(C(=O)C3CCC(F)(F)CC3)CC2)cc1 [Example 715, 1-(4-{1-[(4,4-difluorocyclohexyl)carbonyl]piperidin-4-yl}phenyl)-3-(imidazo[1,2-a]pyridin-7-ylmethyl)urea] | 65.9 nM | 3.49 nM | 0.771 nM
O=C(NCc1ccn2ccnc2c1)Nc1ccc(C2CCN(C(=O)Cc3ccccc3)CC2)cc1 [Example 716, 1-(imidazo[1,2-a]pyridin-7-ylmethyl)-3-{4-[1-(phenylacetyl)piperidin-4-yl]phenyl}urea] | 50.2 nM | 21 nM | 0.607 nM
O=C(NCc1ccn2ccnc2c1)c1ccc(C2CCN(C(=O)C3CC3)C2)s1 (stereo not drawn) [Example 717, 5-[1-(cyclopropylcarbonyl)pyrrolidin-3-yl]-N-(imidazo[1,2-a]pyridin-7-ylmethyl)thiophene-2-carboxamide] | 186 nM | 72.4 nM | 0.428 nM
Cc1ccc(C(=O)N2CCC(c3ccc(C(=O)NCc4ccn5ccnc5c4)s3)C2)cc1 (stereo not drawn) [Example 718, N-(imidazo[1,2-a]pyridin-7-ylmethyl)-5-[1-(4-methylbenzoyl)pyrrolidin-3-yl]thiophene-2-carboxamide] | 23.6 nM | 1.25 nM | 0.755 nM
O=C(NCc1ccn2ccnc2c1)Nc1ccc(C2CCN(C(=O)c3ccccc3F)CC2)cc1 [Example 719, 1-{4-[1-(2-fluorobenzoyl)piperidin-4-yl]phenyl}-3-(imidazo[1,2-a]pyridin-7-ylmethyl)urea] | 6.32 nM | 2.37 nM | 0.835 nM
O=C(NCc1ccn2ccnc2c1)Nc1ccc(C2CCN(C(=O)c3cccc(F)c3)CC2)cc1 [Example 720, 1-{4-[1-(3-fluorobenzoyl)piperidin-4-yl]phenyl}-3-(imidazo[1,2-a]pyridin-7-ylmethyl)urea] | 36.7 nM | 5.82 nM | 0.181 nM
O=C(NCc1ccn2ccnc2c1)Nc1ccc(C2CCN(C(=O)c3ccc(F)cc3)CC2)cc1 [Example 721, 1-{4-[1-(4-fluorobenzoyl)piperidin-4-yl]phenyl}-3-(imidazo[1,2-a]pyridin-7-ylmethyl)urea] | 125 nM | 30.7 nM | 1.21 nM
O=C(NCc1ccn2ccnc2c1)Nc1ccc(C2CCN(C(=O)c3ccc(F)c(F)c3)CC2)cc1 [Example 723, 1-{4-[1-(3,4-difluorobenzoyl)piperidin-4-yl]phenyl}-3-(imidazo[1,2-a]pyridin-7-ylmethyl)urea] | 154 nM | 71.6 nM | 0.932 nM
O=C(NCc1ccn2ccnc2c1)Nc1ccc(C2CCN(C(=O)c3cc(F)ccc3F)CC2)cc1 [Example 725, 1-{4-[1-(2,5-difluorobenzoyl)piperidin-4-yl]phenyl}-3-(imidazo[1,2-a]pyridin-7-ylmethyl)urea] | 19.6 nM | 6 nM | 0.747 nM
O=C(NCc1ccn2ccnc2c1)Nc1ccc(OC2CCN(C(=O)c3ccc(F)cc3F)CC2)cc1 [Example 727, 1-(4-{[1-(2,4-difluorobenzoyl)piperidin-4-yl]oxy}phenyl)-3-(imidazo[1,2-a]pyridin-7-ylmethyl)urea] | 166 nM | 58.2 nM | 0.783 nM
O=C(NCc1ccn2ccnc2c1)Nc1ccc(OC2CCN(C(=O)c3cc(F)ccc3F)CC2)cc1 [Example 728, 1-(4-{[1-(2,5-difluorobenzoyl)piperidin-4-yl]oxy}phenyl)-3-(imidazo[1,2-a]pyridin-7-ylmethyl)urea] | 140 nM | 21 nM | 0.496 nM

The next lines start with the values.

IC50 [1] | IC50 [2] | IC50 [3] | SMILES
277 nM | 74.1 nM | 0.624 nM | O=C(NCc1ccn2ccnc2c1)c1ccc(C2CCN(C(=O)Cc3ccccc3)CC2)cc1 [Example 707, N-(imidazo[1,2-a]pyridin-7-ylmethyl)-4-[1-(phenylacetyl)piperidin-4-yl]benzamide]
60 nM | 5.97 nM | 0.9 nM | O=C(NCc1ccn2ccnc2c1)c1ccc(C2CCN(C(=O)c3ccccc3C(F)(F)F)CC2)cc1 [Example 708, N-(imidazo[1,2-a]pyridin-7-ylmethyl)-4-{1-[2-(trifluoromethyl)benzoyl]piperidin-4-yl}benzamide]
19.4 nM | 3.36 nM | 0.473 nM | CCCC(=O)N1CCC(c2ccc(NC(=O)NCc3ccn4ccnc4c3)cc2)CC1 [Example 709, 1-[4-(1-butanoylpiperidin-4-yl)phenyl]-3-(imidazo[1,2-a]pyridin-7-ylmethyl)urea]
49.1 nM | 2.76 nM | 1.25 nM | CC[C@H](C)C(=O)N1CCC(c2ccc(NC(=O)NCc3ccn4ccnc4c3)cc2)CC1 [Example 710, 1-(imidazo[1,2-a]pyridin-7-ylmethyl)-3-(4-{1-[(2S)-2-methylbutanoyl]piperidin-4-yl}phenyl)urea]
39.4 nM | 3.88 nM | 1.01 nM | O=C(NCc1ccn2ccnc2c1)Nc1ccc(C2CCN(C(=O)c3ccc(F)cc3F)CC2)cc1 [Example 722, 1-{4-[1-(2,4-difluorobenzoyl)piperidin-4-yl]phenyl}-3-(imidazo[1,2-a]pyridin-7-ylmethyl)urea]
161 nM | 63.2 nM | 0.992 nM | O=C(NCc1ccn2ccnc2c1)Nc1ccc(C2CCN(C(=O)c3cc(F)cc(F)c3)CC2)cc1 [Example 724, 1-{4-[1-(3,5-difluorobenzoyl)piperidin-4-yl]phenyl}-3-(imidazo[1,2-a]pyridin-7-ylmethyl)urea]
251 nM | 71.9 nM | 0.534 nM | O=C(NCc1ccn2ccnc2c1)Nc1ccc(OC2CCN(C(=O)c3cccc(F)c3)CC2)cc1 [Example 726, 1-(4-{[1-(3-fluorobenzoyl)piperidin-4-yl]oxy}phenyl)-3-(imidazo[1,2-a]pyridin-7-ylmethyl)urea]
428 nM | 45.9 nM | 0.765 nM | O=C(NCc1ccn2ccnc2c1)Nc1ccc(OC2CCN(C(=O)c3ccc(F)c(F)c3)CC2)cc1 [Example 729, 1-(4-{[1-(3,4-difluorobenzoyl)piperidin-4-yl]oxy}phenyl)-3-(imidazo[1,2-a]pyridin-7-ylmethyl)urea]
489 nM | 29.5 nM | 0.847 nM | O=C(NCc1ccn2ccnc2c1)Nc1ccc(OC2CCN(C(=O)c3cc(F)cc(F)c3)CC2)cc1 [Example 730, 1-(4-{[1-(3,5-difluorobenzoyl)piperidin-4-yl]oxy}phenyl)-3-(imidazo[1,2-a]pyridin-7-ylmethyl)urea]
